From article PMC9964319, “Half-Sandwich Rhodium Complexes with Releasable N-Donor Monodentate Ligands: Solution Chemical Properties and the Possibility for Acidosis Activation” (Pharmaceutics, 2023) come the findings set out here.

Like-named read-outs stand apart in the source and are kept apart here. A value given as a limit tells only on which side of the number the result lay.

Series [1] deals with E. coli ATCC 25922 (sensitive). Kind of series: Antibacterial assay, MIC in 96-well plates at different pH. It counts as cell-based. To be noted: E. coli sensitive, after one day, read-out: MIC. The text has this: (§1) The antibacterial effect was studied in two Gram-positive and in two Gram-negative strains. The Gram-positive S. aureus ATCC 25923 (ATCC, Manassas, VA, USA) is a methicillin-susceptible reference bacterial strain, while S. aureus 272123 is a clinical isolate and resistant to methicillin and ofloxacin (MRSA), which was given by Prof. Dr. Leonard Amaral (Institute of Hygiene and Tropical Medicine, Lisbon, Portugal). The Gram-negative strains were E. coli ATCC 25922 (ATCC, Manassas, VA, USA), which is sensitive to antibiotics, and E. coli 32313 (provided by the Institute of Clinical Microbiology, University of Szeged, Hungary), which is resistant to different antibiotics (trimethoprim/sulfamethoxazole, gentamicin, ciprofloxacin, and norfloxacin).
(§2) The minimum inhibitory concentrations (MICs) of the compounds were determined in 96-well plates based on the Clinical and Laboratory Standard Institute guidelines. The compounds were diluted in 100 μL of Mueller Hinton broth. Then, an overnight bacterial culture diluted 10,000 times in 100 μL of medium was added to each well, with the exception of the medium control wells. For each strain and each tested compound, four pH values were set (5, 6, 7, and 8). Each sample was triplicated.

Series [2] deals with S. aureus ATCC 25923 (methicillin-susceptible). The series is described as above. It counts as cell-based. To be noted: S. aureus sensitive, after one day, read-out: MIC.
Description: as §1, §2

Series [3] deals with E. coli 32313 (resistant). Described as above. It counts as cell-based. To be noted: E. coli resistant, after one day, read-out: MIC.
Description: as §1, §2

For another series, the system named is S. aureus 272123 (MRSA). The series is described as above. It counts as cell-based. The settings on record: read-out: MIC.
Description: as §1, §2

Series [4] in a line: Formation constants of mixed-ligand half-sandwich complexes (UV-vis and 1H NMR). To be noted: aqua complex + monodentate ligand; I = 0.10 M (KCl); t = 25.0 °C; UV-vis and 1H NMR. It counts as physicochemical. Here is the method: NMR spectroscopic studies were carried out on a Bruker Avance III HD Ascend 500 Plus instrument. For the aqueous samples, ^1H NMR spectra were recorded with the WATERGATE water suppression pulse scheme using DSS internal standard. The highest peak of DSS was 0.00 ppm. The measurement was very similar to the UV-vis measurement since the complex–to–monodentate ligand ratio was also between 0–10 equivalents; the spectra were recorded after the given waiting time. […] This technique was useful in those cases where no spectral change was visible during the UV-vis titrations.
In both measurement methods, the formation constant (K) was obtained using the computer program PSEQUAD [38].
It is worthwhile to mention that the liberation of the bidentate ligand was not detected even at higher monodentate ligand excess (~10), which means that the disruption of the bond between the bidentate ligand and the metal center is not feasible under these conditions. The calculated formation constants are compared in Figure 5 and are collected in Table S2. The formation of the mixed-ligand complexes was not detected in three cases under the applied conditions, namely [Ru(p-cym)(en)(mim)]^2+, [Ru(p-cym)(phen)(mim)]^2+, and [Ru(p-cym)(en)(Py)]^2+. For these complexes, only a higher limit of the formation constant could be given, assuming that a maximum of 5% of the complex would form (limit of detection) under the conditions used for ^1H NMR spectroscopy. Based on Figure 5, the following trends are observed in the formation constants: (i) [RhCp*(en)(H2O)]^2+ and [RhCp*(phen)(H2O)]^2+ have a stronger monodentate ligand-binding ability than the Ru(p-cym) analogs; (ii) the formation constants of the [Ru(p-cym)(8HQH-1)(N)]^+ complexes are similar or somewhat higher than those of the RhCp* analogs; (iii) a stability trend for the monodentate ligand: mim > bim > Py (iv) and the bidentate ligand: 8HQH-1 > phen ≥ en can be seen.

Series [5] can be described thus: Computed fractions of mixed-ligand complexes as function of pH from formation constants. The class given is physicochemical. To be noted: for difference in computed fraction (dissociated) when pH decreases from 7.4 to 6.0: 100 μM, ratio 1:1; for fraction of the active form (computed): pH 6.0. Here is the method:
With the help of these formation constants, the extent of complex formation can be estimated for a chosen monodentate ligand—complex chemical system under the desired conditions (concentration and pH). Figure 6 and Figure S25 show the computed fractions of the formed, mixed-ligand complexes between pH = 5 and 8 and at a 100 μM concentration (metal complex-to-monodentate ligand ratio = 1:1). The fraction at pH = 7.4 and at pH 6.0–6.7 were compared to each other.
As an example, the fractions of [Ru(p-cym)(8HQH−1)(mim)]^+ are shown in Figure S26 with decreasing concentration.
Formation constants shown in Figure 5 and in Table S2 were used for the calculation. Percentages indicate the fraction at pH = 7.4 (blue line) and in the range between pH = 6.0–6.7 (pink rectangle: possible pH of tumor microenvironment during acidosis).

Series [6] is described as follows: Proton dissociation constants of the coordinated water in [M(arene)(N,N/O)(H2O)]2+/+ complexes (UV-vis titration). The text has this:
The proton dissociation of the aqua ligand in the [M(arene)(N,N/O)(H2O)]^2+/+ complexes (Scheme 2) results in the inert mixed-hydroxido species (general formula: [M(arene)(N,N/O)(OH)]^+/0).

The test system of series [7] is Colo320 human colon adenocarcinoma cell line (doxorubicin-resistant). The series is described as follows: MTT assay, cytotoxicity at pH 6 and 7. It counts as cell-based. The settings on record: Colo320, 72 h incubation, read-out: IC50. The method, then:
(§3) All cell culture reagents were obtained from Sigma-Aldrich (Merck KGaA, Darmstadt, Germany) and plasticware from Sarstedt (Nümbrecht, Germany). Human colonic adenocarcinoma cell lines Colo205 (catalog number: ATCC-CCL-222) and its doxorubicin-resistant counterpart Colo320 (catalog number: ATCC-CCL-220.1) were purchased from LGC Promochem (Teddington, UK). The cells were cultured in RPMI 1640 medium supplemented with 10% heat-inactivated fetal bovine serum, 2 mM L-glutamine, 1 mM sodium pyruvate, and 100 mM HEPES buffer, adjusting the pH to 6.0 or 7.0. The cells were incubated at 37 °C in a 5% CO2–95% air atmosphere. The semiadherent human colon cancer cells were detached with Trypsin-Versene solution for 5 min at 37 °C.
(§4) The solutions were freshly prepared prior to measurements (see Section 2.1). […] Firstly, these samples were diluted in complete culture medium; then, two-fold serial dilutions of the compounds were prepared in 100 μL of RPMI 1640, horizontally. The semiadherent colonic adenocarcinoma cells were treated with Trypsin-Versene solution. They were adjusted to a density of 1 × 10^4 cells in 100 μL of RPMI 1640 medium and were added to each well, with the exception of the medium control wells. The final volume of the wells containing compounds and cells was 200 μL. Samples were triplicated. The pH of the medium was adjusted to 6.0 or 7.0.
(§5) The culture plates were incubated at 37 °C for 72 h; at the end of the incubation period, 20 μL of MTT solution (from a stock solution of 5 mg/mL) was added to each well. After incubation at 37 °C for 4 h, 100 μL of SDS solution (10% in 0.01 M HCI) was added to each well, and the plates were further incubated at 37 °C overnight. Cell growth was determined by measuring the optical density (OD) at 540/630 nm with a Multiscan EX ELISA reader (Thermo Labsystems, Cheshire, WA, USA). […] Curves were fitted using GraphPad Prism software (2022, version 9.4.1, Graphpad Software (LLC) d.b.a Dotmatics, San Diego, CA, USA) using the sigmoidal dose–response model (comparing variable and fixed slopes).
(§6) The pH-dependent solution speciation of the selected mixed-ligand complexes is an important feature in the hypothesized mechanism of action, and the modeling of acidosis is necessary for the in vitro anticancer assays. In order to find out the cytotoxicity difference based on the pH of the medium, cytotoxic activity was determined at pH 6 and 7 by MTT assay in two human colon adenocarcinoma cell lines (doxorubicin-sensitive Colo205 and doxorubicin-resistant Colo320). […] The mixed-ligand complexes were prepared prior to the measurements, as was already described in Section 2.1. With this method, the effect of the different counter ions could be avoided, and a more adequate comparison of the mixed-ligand complexes could be conducted.
In general terms: Formazan colour is commonly taken as a measure of viable cells.

For series [8], the system named is Colo205 human colon adenocarcinoma cell line (doxorubicin-sensitive). Kind of series: MTT assay, cytotoxicity at pH 6 and 7. The class given is cell-based. The settings on record: Colo205, 72 h incubation, read-out: IC50. Here is the method:
as §3, §4, §5, §6

Where [9] appears, read: pH 6, listed as [RhCp*(phen)Cl]Cl +Py.
Where [10] appears, read: pH 7, listed as [RhCp*(phen)Cl]Cl +Py.
Setting [11] is: pH 6, listed as [RhCp*(phen)Cl]Cl +mim.
Where [12] appears, read: pH 7, listed as [RhCp*(phen)Cl]Cl +mim.
Setting [13] is: I = 0.10 M (KCl), t = 25.0 °C, UV-vis.

On to `Cc1c(C)c(C)[c-](C)c1C.[Rh+3].c1ccncc1.c1cnc2c(c1)ccc1cccnc12` [[RhCp*(phen)(Py)]^2+], for which the MIC in [1] (pH 5), in [1] (setting [9]), in series [1] (setting [10]), in [1] (pH 8), in [2] (setting [10]) and in series [2] (pH 8) was over 100 µM each time. Further, the MIC (usually the lowest concentration found to suppress growth) in series [3] (pH 5) is over 100 µM; in series [3] (setting [9]) it was over 100 µM; in [3] (setting [10]), over 100 µM; in [3] (pH 8), over 100 µM; in the series with S. aureus 272123 (MRSA) (pH 5, after one day), over 100 µM; with S. aureus 272123 (MRSA) (pH 6, after one day, listed as [RhCp*(phen)Cl]Cl +Py), over 100 µM. Moreover, the MIC with S. aureus 272123 (MRSA) (pH 7, after one day, listed as [RhCp*(phen)Cl]Cl +Py) is on record as over 100 µM; in the series with S. aureus 272123 (MRSA) (pH 8, after one day), over 100 µM. For the same molecule, the “Formation constant logK of mixed-ligand complex” value (“Formation constant logK” for short) in [4] was determined as 4.1 ± 0.1.
As to `Cc1c(C)c(C)[c-](C)c1C.Cn1ccnc1.[Rh+3].c1cnc2c(c1)ccc1cccnc12` [[RhCp*(phen)(mim)]^2+], the MIC in series [1] (pH 5), in [1] (setting [11]), in [1] (setting [12]), in series [1] (pH 8), in [2] (setting [12]) and in [2] (pH 8) was over 100 µM each time. The MIC in [3] (pH 5) is reported as over 100 µM; in series [3] (setting [11]), over 100 µM; in [3] (setting [12]) it was over 100 µM; in series [3] (pH 8), over 100 µM; with S. aureus 272123 (MRSA) (pH 5, after one day), over 100 µM; with S. aureus 272123 (MRSA) (pH 6, after one day, listed as [RhCp*(phen)Cl]Cl +mim) it was over 100 µM. For the same molecule, the MIC is on record as over 100 µM in the series with S. aureus 272123 (MRSA) (pH 7, after one day, listed as [RhCp*(phen)Cl]Cl +mim) and over 100 µM in the series with S. aureus 272123 (MRSA) (pH 8, after one day). The “Formation constant logK” value in [4] turned out to be 5.5 ± 0.1. The “difference in computed fraction (dissociated) when pH decreases from 7.4 to 6.0” value in series [5] is listed as 25%.
Regarding `Cc1ccc(C(C)C)cc1.Cn1ccnc1.[O-]c1cccc2cccnc12.[Ru+2]` [[Ru(p-cym)(8HQH−1)(mim)]^+], the “difference in computed fraction (dissociated) when pH decreases from 7.4 to 6.0” value in series [5] is on record as 10%. The “fraction of the active form (computed)” value is 5% in [5] (concentration 1 mM) and 41% in series [5] (concentration two orders of magnitude below 1 mM).
With `Cc1c(C)c(C)[c-](C)c1C.O.[O-]c1cccc2cccnc12.[Rh+3]` [[RhCp*(8HQH-1)(H2O)]+], the “pKa of the coordinated water molecule” value in [6] was 10.6±0.1.
As to `Cc1ccc(C(C)C)cc1.O.[Ru+2].c1cnc2c(c1)ccc1cccnc12` [[Ru(p-cym)(phen)(H2O)]2+], the “pKa of the coordinated water molecule” value in [6] (setting [13]) is 8.91±0.01.
Take `Cc1ccc(C(C)C)cc1.O.[O-]c1cccc2cccnc12.[Ru+2]` [[Ru(p-cym)(8HQH-1)(H2O)]+]: in [6] (setting [13]), the “pKa of the coordinated water molecule” value turned out to be 9.31±0.01.
Still for that read-out and setting: the same measure for `Cc1ccc(C(C)C)cc1.NCCN.O.[Ru+2]` [[Ru(p-cym)(en)(H2O)]2+]: 9.03±0.01.
As for `Cc1c(C)c(C)[c-](C)c1C.[Cl-].[Rh+2][O]c1cccc2cccnc12.c1ccncc1` [[RhCp*(8HQH−1)Cl] +Py], the MIC is over 100 µM in series [1] (pH 6); over 100 µM in series [1] (pH 7); 12.5 µM in series [2] (pH 7); over 100 µM in series [3] (pH 6); over 100 µM in [3] (pH 7); 50 µM in the series with S. aureus 272123 (MRSA) (pH 6, after one day). In addition, the MIC in the series with S. aureus 272123 (MRSA) (pH 7, after one day) is recorded as 12.5 µM. In addition, the “Formation constant logK” value in series [4] is 3.0 ± 0.1. For the same molecule, the IC50 (in general, the concentration that gives 50% inhibition) was 6.2 ± 0.5 µM in series [7] (pH 6), 5.9 ± 0.1 µM in series [7] (pH 7), 7.2 ± 0.4 µM in series [8] (pH 6) and 7.3 ± 0.3 µM in [8] (pH 7).
